Measured values: patent US9765037B2, “Compositions and methods for treating toxoplasmosis, cryptosporidiosis, and other apicomplexan protozoan related diseases” (University of Washington Through its Center for …, priority 2010, dated 2017)
In brackets after ≈: the same amount, converted by molar mass. Where two headings read alike, the source gives them in different places.

Assays:
[1] = system: human lymphocyte (CRL8155); assay: Growth inhibition of human cell line CRL8155
[2] = system: human promyelocytic leukemia (HL-60); assay: Growth inhibition of human cell line HL-60
[3] = system: colorectal carcinoma (HC 2998); assay: Growth inhibition of human cell line HC 2998
glioma derived (SF539) = assay: Growth inhibition of human cell line SF539
TgCDPK1 = TgCDPK1 (Toxoplasma gondii, UniProt Q9BJF5); format: biochemical; conditions: read-out: TgCDPK1 IC50
Chain of TgCDPK1 (Q9BJF5 1-507): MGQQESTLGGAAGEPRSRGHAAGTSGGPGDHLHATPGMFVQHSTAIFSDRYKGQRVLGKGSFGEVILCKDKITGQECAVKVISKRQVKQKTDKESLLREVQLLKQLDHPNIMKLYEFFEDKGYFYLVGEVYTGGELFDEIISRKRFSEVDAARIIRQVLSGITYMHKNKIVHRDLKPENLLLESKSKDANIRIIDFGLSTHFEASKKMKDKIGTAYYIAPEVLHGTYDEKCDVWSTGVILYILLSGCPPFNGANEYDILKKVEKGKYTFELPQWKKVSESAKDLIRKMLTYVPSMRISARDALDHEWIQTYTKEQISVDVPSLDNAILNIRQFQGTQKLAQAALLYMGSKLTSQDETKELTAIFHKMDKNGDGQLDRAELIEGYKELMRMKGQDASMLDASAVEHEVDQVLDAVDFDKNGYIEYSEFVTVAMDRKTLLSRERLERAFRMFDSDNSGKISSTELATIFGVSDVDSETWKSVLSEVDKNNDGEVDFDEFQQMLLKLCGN

PfCDPK4 = PfCDPK4 (Plasmodium falciparum (isolate 3D7), UniProt Q8IBS5); assay: biochemical
CpCDPK1 = CpCDPK1 (Cryptosporidium parvum (strain Iowa II), UniProt A3FQ16); assay: biochemical; format: biochemical
Chain of CpCDPK1 (A3FQ16 1-538): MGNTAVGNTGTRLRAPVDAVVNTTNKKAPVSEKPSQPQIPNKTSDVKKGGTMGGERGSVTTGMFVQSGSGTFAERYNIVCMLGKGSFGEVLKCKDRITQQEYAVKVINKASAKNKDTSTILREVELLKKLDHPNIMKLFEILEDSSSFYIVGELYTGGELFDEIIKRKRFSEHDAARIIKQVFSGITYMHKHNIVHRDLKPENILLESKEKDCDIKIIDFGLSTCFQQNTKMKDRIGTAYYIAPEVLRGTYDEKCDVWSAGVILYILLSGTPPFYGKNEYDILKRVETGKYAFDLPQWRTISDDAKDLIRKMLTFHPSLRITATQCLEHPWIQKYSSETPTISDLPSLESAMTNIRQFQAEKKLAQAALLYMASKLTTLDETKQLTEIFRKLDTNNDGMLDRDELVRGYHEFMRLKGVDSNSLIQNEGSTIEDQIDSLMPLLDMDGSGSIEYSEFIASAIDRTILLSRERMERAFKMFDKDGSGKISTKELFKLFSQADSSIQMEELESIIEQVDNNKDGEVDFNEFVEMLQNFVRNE

PfCDPK1 = PfCDPK1 (Plasmodium falciparum (isolate 3D7), UniProt P62344); assay: biochemical
[4] = Solubility in buffers of various pH; format: physicochemical; conditions: buffer

For `CCN1CCC(Cn2nc(Cc3cccc4ccccc34)c3c(N)ncnc32)CC1` [Compound 5n, 1-((1-ethylpiperidin-4-yl)methyl)-3-(naphthalen-1-ylmethyl)-1H-pyrazolo[3,4-d]pyrimidin-4-amine], the “Cell Toxicity CRL8155, % at 10 μM” value [1] was less than 30% at 10 μM, the “Cell Toxicity HL60, % at 10 μM” value [2] was less than 30% at 10 μM and the “Cell Toxicity HCC2998, % at 10 μM” value [3] was less than 30% at 10 μM. The “Cell Toxicity SF539, % at 10 μM” value (glioma derived (SF539)) was less than 30% at 10 μM.

In the case of `Nc1ncnc2c1c(Cc1cccc3ccccc13)nn2CCC1CCNCC1` [Compound 5i, 3-(naphthalen-1-ylmethyl)-1-(2-(piperidin-4-yl)ethyl)-1H-pyrazolo[3,4-d]pyrimidin-4-amine], the “Cell Toxicity CRL8155, % at 10 μM” value [1] is reported as <30% at 10 μM;, the “Cell Toxicity CRL8155, % at 30 μM” value [1] is reported as less than 30% at 30 μM and the “Cell Toxicity HL60, % at 10 μM” value [2] is reported as <30% at 10 μM;. For the same compound, the “Cell Toxicity HL60, % at 30 μM” value [2] was less than 30% at 30 μM, the IC50 (TgCDPK1) was 52 nM and the “Cell Toxicity HCC2998, % at 10 μM” value [3] was less than 30% at 10 μM. The EC50 (PfCDPK4) was 603 nM, the “Cell Toxicity SF539, % at 10 μM” value (glioma derived (SF539)) was less than 30% at 10 μM and the IC50 (CpCDPK1; read-out: CpCDPK1 IC50) was 0.034 µM.

With `CC(C)n1nc(-c2ccc3ccccc3c2)c2c(N)ncnc21` [Compound 7p, 1-isopropyl-3-(naphthalen-2-yl)-1H-pyrazolo[3,4-d]pyrimidin-4-amine] the “Cell Toxicity CRL8155, % at 25 μM” value [1] was 46% at 25 μM, the GI50 ([1]; read-out: GI50 (μM) CRL8155, human cell line CRL8155) was greater than 10 µM and the “Cell Toxicity HL60, % at 10 μM” value [2] was 35% at 10 μM. For the same compound, the “Cell Toxicity HL60, % at 25 μM” value [2] was 50% at 25 μM;, the GI50 ([2]; read-out: GI50 (μM) HL60, human cell line HL60) was greater than 10 µM and the “Cell Toxicity HCC2998, % at 25 μM” value [3] was less than 30% at 25 μM. For the same compound, the GI50 ([3]; read-out: GI50 (μM) HCC2998, human cell line HCC2998) was roughly 10 µM, the EC50 (PfCDPK4) was 142 nM and the “Cell Toxicity SF539, % at 10 μM” value (glioma derived (SF539)) was 54% at 10 μM. The “Cell Toxicity SF539, % at 25 μM” value (glioma derived (SF539)) was 84% at 25 μM;, the GI50 (glioma derived (SF539); read-out: GI50 (μM) SF539, human cell line SF539) was greater than 10 µM and the EC50 (PfCDPK1) was 380 nM.

Compound `CC(C)(C)n1nc(-c2ccc3ccccc3c2)c2c(N)ncnc21` [Compound 2, 1-tert-butyl-3-(naphthalen-2-yl)-1H-pyrazolo[3,4-d]pyrimidin-4-amine] has a solubility ([4]; aqueous buffer, pH 2.0, read-out: Experimental Solubility pH 2.0) of 43 µM (≈ 13.6 µg/mL), a solubility ([4]; pH 6.5, aqueous buffer, read-out: Experimental Solubility pH 6.5) of 2.4 µM (≈ 0.762 µg/mL) and a solubility ([4]; pH 7.4, aqueous buffer, read-out: Experimental Solubility pH 7.4) of 1.5 µM (≈ 0.476 µg/mL). The “Cell Toxicity CRL8155, % at 25 μM” value [1] was 37% at 25 μM;, the “Cell Toxicity CRL8155, % at 30 μM” value [1] was less than 30% at 30 μM and the “Cell Toxicity HL60, % at 25 μM” value [2] was <30% at 25 μM;. The “Cell Toxicity HL60, % at 30 μM” value [2] was less than 30% at 30 μM, the “Cell Toxicity HCC2998, % at 25 μM” value [3] was less than 30% at 25 μM and the EC50 (PfCDPK4) was 480 nM. For the same compound, the “Cell Toxicity SF539, % at 25 μM” value (glioma derived (SF539)) was less than 30% at 25 μM and the EC50 (PfCDPK1) was 1250 nM.

With `CC(C)n1nc(-c2ccc(Cl)c(Cl)c2)c2c(N)ncnc21` [Compound 7c, 3-(3,4-dichlorophenyl)-1-isopropyl-1H-pyrazolo[3,4-d]pyrimidin-4-amine] the “Cell Toxicity CRL8155, % at 25 μM” value [1] was 54% at 25 μM, the “Cell Toxicity HL60, % at 25 μM” value [2] was 51% at 25 μM and the “Cell Toxicity HCC2998, % at 25 μM” value [3] was less than 30% at 25 μM. For the same compound, the “Cell Toxicity SF539, % at 25 μM” value (glioma derived (SF539)) was 31% at 25 μM.

For `CS(=O)(=O)N1CCC(n2nc(Cc3cccc4ccccc34)c3c(N)ncnc32)CC1` [Compound 5p, 1-(1-(methylsulfonyl)piperidin-4-yl)-3-(naphthalen-1-ylmethyl)-1H-pyrazolo[3,4-d]pyrimidin-4-amine], the “Cell Toxicity CRL8155, % at 25 μM” value [1] was less than 30% at 25 μM, the “Cell Toxicity HL60, % at 25 μM” value [2] was less than 30% at 25 μM and the “Cell Toxicity HCC2998, % at 25 μM” value [3] was less than 30% at 25 μM. The “Cell Toxicity SF539, % at 25 μM” value (glioma derived (SF539)) was less than 30% at 25 μM.

For `Nc1ncnc2c1c(Cc1cccc3ccccc13)nn2C1CCNCC1` [Compound 5g, 3-(naphthalen-1-ylmethyl)-1-(piperidin-4-yl)-1H-pyrazolo[3,4-d]pyrimidin-4-amine], the “Cell Toxicity CRL8155, % at 10 μM” value [1] was less than 30% at 10 μM, the “Cell Toxicity HL60, % at 10 μM” value [2] was less than 30% at 10 μM and the IC50 (TgCDPK1) was 59 nM. The “Cell Toxicity HCC2998, % at 10 μM” value [3] was less than 30% at 10 μM, the “Cell Toxicity SF539, % at 10 μM” value (glioma derived (SF539)) was less than 30% at 10 μM and the IC50 (CpCDPK1; read-out: IC50 (μM) CpCDPK1) was 0.056 µM.

For `CC(C)n1nc(-c2cnc3ccccc3c2)c2c(N)ncnc21` [Compound 7t, 1-isopropyl-3-(quinolin-3-yl)-1H-pyrazolo[3,4-d]pyrimidin-4-amine], the “Cell Toxicity CRL8155, % at 10 μM” value [1] was less than 30% at 10 μM, the “Cell Toxicity HL60, % at 10 μM” value [2] was less than 30% at 10 μM and the “Cell Toxicity HCC2998, % at 10 μM” value [3] was less than 30% at 10 μM. For the same compound, the EC50 (PfCDPK4) was 169 nM, the “Cell Toxicity SF539, % at 10 μM” value (glioma derived (SF539)) was less than 30% at 10 μM and the EC50 (PfCDPK1) was 1360 nM.
